According to the supplement of paper PMC8671470:

What was measured:
Settings in all cases: 72 h
BV-173 [1] = system: BV-173
In short: (§1)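 Fifteen myeloid leukaemia lines in RPMI 1640 were treated for 72 h at 37 °C and 5% CO2 with five tenfold doses from 1 to 10,000 nM, in duplicate. ATP luminescence was normalised to vehicle and to a positive control at 10 µM, then fitted with a four-parameter log-logistic model. The IC50 came from these fits.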

HEL [2] = system: HEL
In short: as §1

HL-60 [3] = system: HL-60
In short: as §1

K-562 [4] = system: K-562
In short: as §1

KCL-22 [5] = system: KCL-22
In short: as §1

KG-1 [6] = system: KG-1
In short: as §1

KU-812 [7] = system: KU-812
In short: as §1

LAMA-84 [8] = system: LAMA-84
In short: as §1

ML-2 [9] = system: ML-2
In short: as §1

MOLM-13 [10] = system: MOLM-13
In short: as §1

MV4-11 [11] = system: MV4-11
In short: as §1

Mono-Mac-6 [12] = system: Mono-Mac-6
In short: as §1

NOMO-1 [13] = system: NOMO-1
In short: as §1

SHI-1 [14] = system: SHI-1
In short: as §1

THP-1 [15] = system: THP-1
In short: as §1

BV-173 [16] = experiment: cell viability (% survival relative to DMSO control, bortezomib = 0%); higher = less cytotoxic
In short: (§2)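 Fifteen myeloid leukaemia cell lines (10 AML, 5 CML) were seeded at a density titrated to the linear growth range into 384-well plates pre-printed with compounds at 1, 10, 100, 1000 or 10000 nM in duplicate. Plates were incubated for 72 h at 37 °C with 5% CO2. Viability was then read by CellTiter-Glo luminescence. Each value is percent survival averaged over the duplicates, with vehicle set to 100% and a 10 µM positive control to 0%.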

HEL [17] = experiment: as above
In short: as §2

HL-60 [18] = experiment: as above
In short: as §2

K-562 [19] = experiment: as above
In short: as §2

KCL-22 [20] = experiment: as above
In short: as §2

KG-1 [21] = experiment: as above
In short: as §2

KU-812 [22] = experiment: as above
In short: as §2

LAMA-84 [23] = experiment: as above
In short: as §2

ML-2 [24] = experiment: as above
In short: as §2

MOLM-13 [25] = experiment: as above
In short: as §2

MV4-11 [26] = experiment: as above
In short: as §2

Mono-Mac-6 [27] = experiment: as above
In short: as §2

NOMO-1 [28] = experiment: as above
In short: as §2

SHI-1 [29] = experiment: as above
In short: as §2

THP-1 [30] = experiment: as above
In short: as §2

c1ccc2c(c1)SCc1c-2[nH]c2ccccc12
Settings	IC50 (cell viability)
BV-173 [1]	646 nM
HEL [2]	3.3 µM
HL-60 [3]	2000 nM
K-562 [4]	4.42 µM
KCL-22 [5]	2.18 µM
KG-1 [6]	0.76 µM
KU-812 [7]	2920 nM
LAMA-84 [8]	4.96 µM
ML-2 [9]	1480 nM
MOLM-13 [10]	1970 nM
MV4-11 [11]	1060 nM
Mono-Mac-6 [12]	2890 nM
NOMO-1 [13]	3.12 µM
SHI-1 [14]	2600 nM
THP-1 [15]	4.04 µM

cell viability [%]
Settings	1 nM	10 nM	100 nM	1000 nM	10000 nM
BV-173 [16]	98.6	113	114	27.6	-0.875
HEL [17]	106	102	94.6	94.9	7
HL-60 [18]	100	95.7	102	83	23.4
K-562 [19]	100	100	103	108	12
KCL-22 [20]	96.1	93.2	100	80.9	1.24
KG-1 [21]	104	102	125	34.7	-0.763
KU-812 [22]	99.6	110	105	95.3	0.3
LAMA-84 [23]	106	103	111	109	16.6
ML-2 [24]	106	110	89.8	69	-1.13
MOLM-13 [25]	99.2	87	100	78.6	23.9
MV4-11 [26]	101	101	111	52.8	-0.521
Mono-Mac-6 [27]	97.8	105	103	95.3	-0.27
NOMO-1 [28]	97	107	108	98.2	0.816
SHI-1 [29]	101	96	89.1	84.7	3.75
THP-1 [30]	105	100	106	93.4	33.6

C[C@H]1O[C@H](O[C@H]2[C@H](O)[C@@H](O)[C@@H](O[C@H]3[C@H](O)[C@@H](O)C(O)O[C@@H]3CO)O[C@@H]2CO)[C@H](O)[C@@H](O)[C@@H]1N[C@H]1C=C(CO)[C@@H](O)[C@H](O)[C@H]1O (mixture of isomers) [Acarbose]
Settings	IC50 (cell viability)
BV-173 [1]	> 10000 nM
HEL [2]	> 10 µM
HL-60 [3]	> 10000 nM
K-562 [4]	> 10 µM
KCL-22 [5]	> 10 µM
KG-1 [6]	> 10 µM
KU-812 [7]	> 10000 nM
LAMA-84 [8]	> 10 µM
ML-2 [9]	> 10000 nM
MOLM-13 [10]	> 10000 nM
MV4-11 [11]	> 10000 nM
Mono-Mac-6 [12]	> 10000 nM
NOMO-1 [13]	> 10 µM
SHI-1 [14]	> 10000 nM
THP-1 [15]	> 10 µM

cell viability [%]
Settings	1 nM	10 nM	100 nM	1000 nM	10000 nM
BV-173 [16]	95.6	99.7	110	103	83.4
HEL [17]	117	111	114	88.8	98.8
HL-60 [18]	125	111	122	99.1	106
K-562 [19]	111	131	88.1	94.9	98.8
KCL-22 [20]	116	117	112	86.5	97.2
KG-1 [21]	99.1	107	93.2	105	95.7
KU-812 [22]	91.8	94.5	107	114	93.9
LAMA-84 [23]	93.4	84.7	108	92.7	93.4
ML-2 [24]	104	102	103	94.8	95.8
MOLM-13 [25]	133	86.7	106	95.8	94.9
MV4-11 [26]	108	73	111	89.1	94.9
Mono-Mac-6 [27]	101	95.6	102	111	87
NOMO-1 [28]	98.1	97.7	103	96.1	88.4
SHI-1 [29]	116	120	99.8	104	97.7
THP-1 [30]	87.6	107	96.9	95.1	97.1

CC(=O)N1CCN(c2ccc(OC[C@@H]3CO[C@@](Cn4ccnc4)(c4ccc(Cl)cc4Cl)O3)cc2)CC1 (racemic) [Ketoconazole]
Settings	IC50 (cell viability)
BV-173 [1]	> 10000 nM
HEL [2]	> 10 µM
HL-60 [3]	> 10000 nM
K-562 [4]	> 10 µM
KCL-22 [5]	8.91 µM
KG-1 [6]	8.35 µM
KU-812 [7]	> 10000 nM
LAMA-84 [8]	> 10 µM
ML-2 [9]	> 10000 nM
MOLM-13 [10]	> 10000 nM
MV4-11 [11]	> 10000 nM
Mono-Mac-6 [12]	> 10000 nM
NOMO-1 [13]	> 10 µM
SHI-1 [14]	> 10000 nM
THP-1 [15]	> 10 µM

cell viability [%]
Settings	1 nM	10 nM	100 nM	1000 nM	10000 nM
BV-173 [16]	90.8	78.3	100	92.6	78.8
HEL [17]	104	105	94.1	112	67.2
HL-60 [18]	104	109	97.8	112	75.5
K-562 [19]	98.6	95.2	97.3	91.8	95.8
KCL-22 [20]	98.4	117	101	103	44.1
KG-1 [21]	97.5	105	90.9	93.7	42.9
KU-812 [22]	100	102	95.1	105	70.5
LAMA-84 [23]	104	97.9	96.3	96.7	82.6
ML-2 [24]	97.8	113	90.8	101	69.9
MOLM-13 [25]	92.5	110	100	104	88.1
MV4-11 [26]	92.5	94.3	102	98.2	54.7
Mono-Mac-6 [27]	93.6	91.8	95.6	94	90.1
NOMO-1 [28]	102	95.5	100	99.8	99.5
SHI-1 [29]	104	113	96.3	114	97.5
THP-1 [30]	105	95.9	97.4	104	91.1

CCC(CC#N)OC(=O)N[C@@H](C)c1cccc(NC(=O)Nc2ccc(-c3cnco3)c(OC)c2)c1 (stereo in doubt) [AVN-944]
Settings	IC50 (cell viability)
BV-173 [1]	118 nM
HEL [2]	0.151 µM
HL-60 [3]	182 nM
K-562 [4]	0.0558 µM
KCL-22 [5]	0.0628 µM
KG-1 [6]	0.173 µM
KU-812 [7]	94.9 nM
LAMA-84 [8]	0.0736 µM
ML-2 [9]	66.8 nM
MOLM-13 [10]	44.9 nM
MV4-11 [11]	78.1 nM
Mono-Mac-6 [12]	151 nM
NOMO-1 [13]	0.451 µM
SHI-1 [14]	137 nM
THP-1 [15]	1.9 µM

cell viability [%]
Settings	1 nM	10 nM	100 nM	1000 nM	10000 nM
BV-173 [16]	93.8	80.7	50.8	-0.621	-0.6
HEL [17]	101	119	70	4.65	2.7
HL-60 [18]	94.9	85.7	61.6	12.6	1.98
K-562 [19]	103	96.9	30.3	10.1	5.46
KCL-22 [20]	94.6	114	32.7	11.6	7.56
KG-1 [21]	108	99.4	74.1	27	20.2
KU-812 [22]	93.6	106	50.2	9.58	3.66
LAMA-84 [23]	92.5	102	43.9	19	12.5
ML-2 [24]	99.6	111	29.5	1.17	-0.0869
MOLM-13 [25]	130	121	8.35	1.17	0.252
MV4-11 [26]	92.1	96.4	35.8	-0.602	-0.425
Mono-Mac-6 [27]	90.2	90.5	60.2	16.4	8.67
NOMO-1 [28]	99.9	101	86.5	34	10.4
SHI-1 [29]	104	107	68.2	12.4	8.7
THP-1 [30]	101	99.7	101	65.3	43.1

OC[C@H]1OC(O)C[C@@H](O)[C@@H]1O (stereo not given in full) [2-deoxyglucose]
Settings	IC50 (cell viability)
BV-173 [1]	> 10000 nM
HEL [2]	> 10 µM
HL-60 [3]	> 10000 nM
K-562 [4]	> 10 µM
KCL-22 [5]	> 10 µM
KG-1 [6]	> 10 µM
KU-812 [7]	> 10000 nM
LAMA-84 [8]	> 10 µM
ML-2 [9]	> 10000 nM
MOLM-13 [10]	> 10000 nM
MV4-11 [11]	> 10000 nM
Mono-Mac-6 [12]	> 10000 nM
NOMO-1 [13]	> 10 µM
SHI-1 [14]	> 10000 nM
THP-1 [15]	> 10 µM

cell viability [%]
Settings	1 nM	10 nM	100 nM	1000 nM	10000 nM
BV-173 [16]	126	107	109	90.4	106
HEL [17]	123	113	112	93.3	95.1
HL-60 [18]	82.5	92	106	102	94.7
K-562 [19]	107	117	94.2	101	99.6
KCL-22 [20]	110	107	107	90.6	104
KG-1 [21]	111	95.2	98.9	82.6	92.9
KU-812 [22]	105	101	101	85.1	95.5
LAMA-84 [23]	107	114	95.6	86.3	96.8
ML-2 [24]	101	110	102	89.4	96.1
MOLM-13 [25]	86.7	108	93	90.1	86.4
MV4-11 [26]	102	91.4	100	92	110
Mono-Mac-6 [27]	65.6	99.3	102	89.4	99.2
NOMO-1 [28]	112	100	107	87.9	93.6
SHI-1 [29]	112	105	105	93.4	98.3
THP-1 [30]	92	96.1	105	86.9	100
